This is an account of results in US5444174A, “16-membered macrolide derivative having sustained antibacterial activity in plasma, synthesis intermediate thereof and process for producing the same” (Meiji Seika Kaisha, Ltd., priority 1992, dated 1995).

Converted amounts (≈) assume the structure as drawn. Like-named read-outs stand apart in the source and are kept apart here.

Data set [1] can be described thus: Storage stability of synthesis intermediates. Type of data set: physicochemical. To be noted: room temperature storage.
The subject of data set [2] is M. luteus. The data set is classed as in vitro ADME. On the procedure:
Changes in the antibacterial activities of miokamycin (MOM) and the compound (13) were measured in the following manner.
(§1) Each test compound and 50 μl of a methanol solution (10,000 γ) were added to 950 μl of thawed rat plasma and the resulting mixture was incubated at 37° C. A 20 μl portion of the mixture was sampled after 0, 1, 3, 6 and 24 hours and added to 980 μl of 0.05M phosphate buffer (pH 7.2). A 20 μl portion of the sample solution was used to measure antibacterial activity against M. luteus. Separately, the calibration curve was prepared by using a methanol solution containing each test compound. The starting activity of each compound in the plasma was referred to as 100%.

Data set [3] deals with gram-positive bacteria. The experiment in a line: Antibacterial activities against gram-positive bacteria (summary of Table 1). The data set is classed as cell-based. To be noted: in words. As to the method:
(§2) Antibacterial activities of the compounds of formula (I) are shown in Table 1 in terms of minimum inhibitory concentration (MIC).
(§3) Minimum inhibitory concentration was determined by the agar plate dilution method. Test strains were subjected to seed culture using Sensitivity test broth (STB, Nissui Pharmaceutical) except that the strains belonging to the genus Streptococcus, Branhamella and Haemophilus were cultured on blood agar plate. A 5 μl portion of cell suspension of the test strains having about 10^6 CFU/ml was inoculated into Sensitivity disk agar (SDA, Nissui Pharmaceutical) supplemented with 5% horse blood and incubated at 37° C. for 20 hours. Then, MIC was measured.

Data set [4] concerns H. influenza 9334. The experiment in a line: Antibacterial activity (MIC), agar plate dilution method. Type of data set: cell-based. The settings on record: 37° C., 20 hours, blood agar seed culture. As to the method: as §2, §3
The subject of data set [5] is Sta. aureus M126. Described as above. The data set is classed as cell-based. The settings on record: Staphylococcus aureus, 37° C., 20 hours. As to the method: as §2, §3
The test system of data set [6] is K. pneumoniae PC1602. The data set is described as above. The data set is classed as cell-based. To be noted: Klebsiella pneumoniae, 37° C., 20 hours. On the procedure:
as §2, §3

Data set [7] concerns M. luteus ATCC 9341. The data set is described as above. The data set is classed as cell-based. To be noted: Micrococcus luteus, ATCC9341, 37° C., 20 hours. As to the method:
as §2, §3

Data set [8] relates to Sta. aureus MS15009/pMS99. The description is as above. The data set is classed as cell-based. To be noted: Staphylococcus aureus, MS15009/PMS99, 20 h, read-out: Antibacterial activity (MIC). On the procedure: as §2, §3
For data set [9], the system named is B. catarrhalis W-0500. The description is as above. The settings on record: Moraxella catarrhalis, W0500; 37° C., 20 hours; blood agar seed culture; B. catarrhalis W-0500; read-out: Antibacterial activity (MIC). The data set is classed as cell-based. As to the method:
as §2, §3

Data set [10] has as its system B. catarrhalis W-0506. The description is as above. The settings on record: Moraxella catarrhalis, read-out: Antibacterial activity (MIC). Type of data set: cell-based. On the procedure: as §2, §3
Data set [11] concerns S. Pyogenes Cook. The description is as above. Type of data set: cell-based. To be noted: Streptococcus pyogenes, 37° C., 20 hours, blood agar seed culture. As to the method: as §2, §3
For data set [12], the system named is Sta. epidermidis ATCC 14990. The data set is described as above. Type of data set: cell-based. To be noted: Staphylococcus epidermidis, ATCC14990; 37° C., 20 hours; Sta. epidermidis ATCC 14990; read-out: Antibacterial activity (MIC). On the procedure:
as §2, §3

Data set [13] concerns S. pneumoniae IP692. Described as above. Type of data set: cell-based. To be noted: Streptococcus pneumoniae, 37° C., 20 hours, blood agar seed culture. As to the method: as §2, §3
The test system of data set [14] is Sta. aureus 209P JC-1. The description is as above. The data set is classed as cell-based. To be noted: Staphylococcus aureus, 37° C., 20 hours. On the procedure: as §2, §3
The subject of data set [15] is Sta. aureus MS15026. Described as above. Type of data set: cell-based. The settings on record: Staphylococcus aureus, 37° C., 20 hours. As to the method:
as §2, §3

Data set [16] deals with S. pneumoniae Type 1. The description is as above. To be noted: Streptococcus pneumoniae, TYPE1, 37° C., 20 hours, blood agar seed culture. Type of data set: cell-based. As to the method: as §2, §3
The subject of data set [17] is Sta. aureus MS15009/pMS98. The data set is described as above. The settings on record: Staphylococcus aureus, MS15009/PMS98, 20 h, read-out: Antibacterial activity (MIC). The data set is classed as cell-based. As to the method:
as §2, §3

Data set [18] concerns Ent. faecalis W-73. The data set is described as above. The data set is classed as cell-based. The settings on record: Enterococcus faecalis, W73, 37° C., 20 hours. As to the method:
as §2, §3

Data set [19] deals with Sta. aureus MS15027. Described as above. To be noted: Staphylococcus aureus, read-out: Antibacterial activity (MIC). Type of data set: cell-based. As to the method:
as §2, §3

The subject of data set [20] is E. coli NIHJ JC-2. The data set is described as above. Type of data set: cell-based. To be noted: Escherichia coli, NIHJJC2, 37° C., 20 hours. On the procedure:
as §2, §3

The subject of data set [21] is Sta. aureus M133. Described as above. Type of data set: cell-based. The settings on record: Staphylococcus aureus; 37° C., 20 hours; Sta. aureus M133; read-out: Antibacterial activity (MIC). As to the method: as §2, §3
For data set [22], the system named is M. luteus. The data set is classed as in vitro ADME. On the procedure:
as §1
Changes in the antibacterial activities of miokamycin and the compound (14) against M. luteus were measured in the same manner as described above except for using fresh rat plasma in place of thawed rat plasma. The fresh rat plasma was prepared by collecting 50 ml of blood from five rats, treating the blood with heparin and subjecting it to centrifugation to obtain plasma.
The source holds these as a separate data set.

The conditions of data set [23]: cited from earlier work.
The conditions of data set [24]: human compared with rat; cited from earlier work.
For data set [25] the following is noted: vs midecamycin; cited from earlier work.
For data set [26] the following is noted: cited from earlier work. This is another data set of the same source.
Where [27] appears, read: W0506, 37° C., 20 hours, blood agar seed culture, B. catarrhalis W-0506.
[28] abbreviates: 37° C., 20 hours, Sta. aureus MS15027.

With `CCC(=O)O[C@@H]1CC(=O)O[C@H](C)C/C=C/C=C/C(=O)[C@H](C)C[C@H](CC2OCCO2)[C@H](O[C@@H]2O[C@H](C)[C@@H](O)[C@H]([N+](C)(C)[O-])[C@H]2O)[C@H]1OC` [Compound (2)], the stability entry in data set [1] is “so stable as to be stored at room temperature for a prolonged period of time”.

For `CCO[C@H]1[C@H](C)O[C@@H](O[C@H]2[C@H](N(C)C)[C@@H](O)[C@H](O[C@H]3[C@@H](CC=O)C[C@@H](C)C(=O)/C=C/C=C/C[C@@H](C)OC(=O)C[C@@H](OC(=O)CC)[C@@H]3OC)O[C@@H]2C)C[C@@]1(C)OC` [Compound (13)], the “antibacterial activity in rat plasma over time” value in [2] is listed as “antibacterial activity sustaining for a prolonged period of time in rat plasma”. For the same compound, in data set [2], the “degree of the decrease in the antibacterial activity in plasma” value is on record as “clearly lower degree of the decrease in the antibacterial activity in plasma, compared with miokamycin”. Moreover, the “metabolism at the mycarose moiety in plasma” value in data set [2] is reported as “hardly metabolized at the mycarose moiety”. In addition, the “antibacterial activities against gram-positive bacteria” value in data set [3] was “have antibacterial activities against gram-positive bacteria”. Also, the MIC is 100 µg/mL (≈ 125 µM) in data set [4]; greater than 100 µg/mL in data set [5]; greater than 100 µg/mL in data set [6]; 0.78 µg/mL (≈ 0.977 µM) in data set [7]; greater than 100 µg/mL in data set [8]; 3.13 µg/mL (≈ 3.92 µM) in data set [9]. In addition, the MIC in data set [10] (W0506, 20 h) was 6.25 µg/mL (≈ 7.83 µM); in data set [11], 0.78 µg/mL (≈ 0.977 µM); in data set [12], 12.5 µg/mL (≈ 15.7 µM); in data set [13] it was 1.56 µg/mL (≈ 1.95 µM); in data set [14], 3.13 µg/mL (≈ 3.92 µM); in data set [15] it was greater than 100 µg/mL. Further, the MIC is 1.56 µg/mL (≈ 1.95 µM) in data set [16]; 6.25 µg/mL (≈ 7.83 µM) in data set [17]; 3.13 µg/mL (≈ 3.92 µM) in data set [18]; 6.25 µg/mL (≈ 7.83 µM) in data set [19] (MS15027, 20 h); greater than 100 µg/mL in data set [20]; 3.13 µg/mL (≈ 3.92 µM) in [21].

As to `CCC(=O)O[C@@H]1CC(=O)O[C@H](C)C/C=C/C=C/C(=O)[C@H](C)C[C@H](CC=O)[C@H](O[C@@H]2O[C@H](C)[C@@H](O[C@H]3C[C@@](C)(OC)[C@@H](OCCC(C)C)[C@H](C)O3)[C@H](N(C)C)[C@H]2O)[C@H]1OC` [Compound (14)], in data set [3], the “antibacterial activities against gram-positive bacteria” value is recorded as “have antibacterial activities against gram-positive bacteria”. The “antibacterial activities compared with miokamycin” value in data set [3] (vs miokamycin) was “excellent antibacterial activities exceeding that of miokamycin”. For the same compound, the “antibacterial activity in rat plasma over time” value in data set [22] is “antibacterial activity sustaining for a prolonged period of time in rat plasma”. Also, the “degree of the decrease in the antibacterial activity in plasma” value in data set [22] is “clearly lower degree of the decrease in the antibacterial activity in plasma, compared with miokamycin”. The “metabolism at the mycarose moiety in plasma” value in [22] was “hardly metabolized at the mycarose moiety”. In addition, the MIC in data set [4] is 6.25 µg/mL (≈ 7.44 µM); in [5] it was greater than 100 µg/mL; in data set [6] it was greater than 100 µg/mL; in [7], 0.1 µg/mL (≈ 0.119 µM); in data set [8] it was greater than 100 µg/mL; in data set [9] it was 0.78 µg/mL (≈ 0.929 µM). In addition, the MIC in data set [10] (setting [27]) is 0.78 µg/mL (≈ 0.929 µM); in data set [11] it was 0.05 µg/mL (≈ 0.0595 µM); in data set [12], 0.78 µg/mL (≈ 0.929 µM); in [13] it was 0.1 µg/mL (≈ 0.119 µM); in data set [14] it was 0.2 µg/mL (≈ 0.238 µM); in data set [15], greater than 100 µg/mL. Also, the MIC was 0.2 µg/mL (≈ 0.238 µM) in data set [16]; 0.78 µg/mL (≈ 0.929 µM) in [17]; 1.56 µg/mL (≈ 1.86 µM) in data set [18]; 0.78 µg/mL (≈ 0.929 µM) in data set [19] (setting [28]); greater than 100 µg/mL in [20]; 0.78 µg/mL (≈ 0.929 µM) in data set [21].

Turning to `CCC(=O)O[C@@H]1CC(=O)O[C@H](C)C/C=C/C=C/[C@H](OC(C)=O)[C@H](C)C[C@H](CC=O)[C@H](O[C@@H]2O[C@H](C)[C@@H](O[C@H]3C[C@@](C)(OC(C)=O)[C@@H](OC(=O)CC)[C@H](C)O3)[C@H](N(C)C)[C@H]2O)[C@H]1OC` [Miokamycin, miokamycin, reference compound], the “recovery ratio in urine” value in [23] (vs midecamycin) is reported as “superior to midecamycin”. In data set [23] (vs natural compounds), the dynamics in vivo entry is “superior in the dynamics in vivo to natural compounds”. For the same compound, the “metabolic pattern of the deacylation of the mycarose moiety in human” value in [24] was “almost similar to that in rat”. For the same compound, the “infection-protective action in vivo” value in data set [25] is given as “superior to midecamycin”. In [26], the “antibacterial activity after metabolism in vivo” value is listed as “the antibacterial activity of this antibiotic is reduced”. In addition, the “elimination of acyl group at the mycarose moiety in vivo” value in data set [26] is reported as “eliminated in vivo”. Besides, the MIC is 6.25 µg/mL (≈ 6.96 µM) in data set [4]; greater than 100 µg/mL in [5]; greater than 100 µg/mL in data set [6]; 0.1 µg/mL (≈ 0.111 µM) in data set [7]; greater than 100 µg/mL in [8]; 1.56 µg/mL (≈ 1.74 µM) in data set [9]. Further, the MIC in data set [10] (setting [27]) was 1.56 µg/mL (≈ 1.74 µM); in [11], 0.1 µg/mL (≈ 0.111 µM); in [12] it was 0.78 µg/mL (≈ 0.869 µM); in [13] it was 0.2 µg/mL (≈ 0.223 µM); in data set [14], 0.2 µg/mL (≈ 0.223 µM); in data set [15] it was greater than 100 µg/mL. In addition, the MIC in data set [16] is 0.2 µg/mL (≈ 0.223 µM); in data set [17], 0.78 µg/mL (≈ 0.869 µM); in [18], 1.56 µg/mL (≈ 1.74 µM); in [19] (setting [28]) it was 0.78 µg/mL (≈ 0.869 µM); in data set [20] it was greater than 100 µg/mL; in data set [21], 0.78 µg/mL (≈ 0.869 µM).
